“Also recorded” adds a separate entry of the source. Where two headings read alike, the source gives them in different places.
Key:
RML scrapie [1] = assay type: in vivo, C57Bl6 mice; details: i.c. RML scrapie
RML scrapie [2] = assay type: in vivo, C57BL/6 mice
[3] = test system: PrP^Sc accumulation in brain (RML scrapie); assay type: in vivo, C57BL/6 mice; details: brain at 120 dpi
[4] = test system: PrP^Sc accumulation in spleen (RML scrapie); assay type: in vivo, C57BL/6 mice; details: i.p. infection; 34 days of 1 mg compound per day in DMSO+peanut butter; spleen at 35 dpi
[5] = Pharmacokinetic analysis of anle138b, compound in brain and serum by LC-MS (Example 15); details: single dose, non-infected mice
[6] = test system: PrPSc in spleen (RML scrapie); assay type: in vivo, C57Bl6 mice; details: i.p. RML scrapie; 25 μL 100 mM i.p. 14 days then 50 mg/kg oral; day 35 post infection
RML scrapie [7] = assay type: in vivo, C57BL/6 mice; details: different times and schedules of treatment; p<0.01
[8] = test system: PrPSc in brain (RML scrapie)
α-synuclein = α-synuclein (Homo sapiens, UniProt P37840); assay: Inhibition of the formation of α-synuclein aggregates (intermediate II oligomers), confocal single molecule spectroscopy (Example 16); assay type: biochemical
[9] = 5 mg per day orally in DMSO+peanut butter from 80 or 120 dpi
[10] = i.c. RML scrapie, treatment from day 80

## Brc1cccc(-c2cc(-c3ccc4c(c3)OCO4)n[nH]2)c1 [anle138b, 3-(1,3-Benzodioxol-5-yl)-5-(3-bromophenyl)-1H-pyrazole]
RML scrapie [1]; daily i.p. for 14 days from day 80 post infection
  effect of treatment on survival time: significantly prolongs the survival times
RML scrapie [1]; i.p. 25 μL per day of 100 mM compound for 14 days from day 80 post infection
  average survival time prolonged by, in comparison to DMSO vehicle group: 14.9 days
RML scrapie [2]; [9]
  PrPSc accumulation in brain (stained sections, brain homogenates): strongly reduced
  apoptotic cells in the cerebellum (neuronal cell death): inhibition of neuronal cell death
RML scrapie [2]; 5 mg per day orally, treatment from 80 dpi onwards
  time for which weight loss is prevented: ~100 days
RML scrapie [2]; 5 mg per day orally, treatment from 120 dpi
  time for which weight loss is inhibited: ~70 days
[3]; 1 mg compound per day orally in DMSO+peanut butter from 80 dpi, relative to DMSO-treated (0%) and start of treatment (100%)
  Inhibition [%] of PrPSc accumulation in brain, protocol a: 69%
[3]; different amounts orally in DMSO+peanut butter from 80 dpi
  PrPSc accumulation in brain, dose dependence: reduced PrP^Sc accumulation in brain in a dose-dependent manner
[4]
  Inhibition [%] of PrPSc accumulation in spleen, protocol c: 62%
[5]
  brain penetration: good brain penetration
  oral bioavailability: good oral bioavailability
[6]
  PrPSc deposits in spleen tissue (immunohistology): reduced
  splenic PrPSc level (immunoblot / dot blot) compared to vehicle-treated mice: strong reduction in PrPSc levels; also recorded: decreases significantly
RML scrapie [7]
  survival times after challenge with RML scrapie: significantly prolonged the survival times
[8]; 0.84 mg per day i.p. 14 days from 80 dpi then 2x5 days 1 mg by gavage, brain at 106 dpi, relative to DMSO-treated (0%) and start of treatment (100%)
  Inhibition [%] of PrPSc accumulation in brain, protocol b: 108%
[8]; [10]
  change of relative PrPSc levels in brain compared to untreated control at day 80: slighty decreased
  pathological changes / apoptotic cells in cerebellar granule cell layer (H&E stained brain slices): reduction of pathological changes
[8]; i.c. RML scrapie, treatment from day 80, two anle138b mice additionally fed compound in peanut butter day 109 to 136
  survival time until terminal stage of scrapie infection: longer survival times

## FCCn1nc(-c2ccc3c(c2)OCO3)cc1-c1cccc(Br)c1 [sery363a]
[3]; 3 mg compound per day orally in DMSO+peanut butter from 80 dpi
  reduction of PrPC accumulation compared to DMSO-treated controls: 35%

## Nc1ccc(-c2cc(-c3cccc(Cl)c3)n[nH]2)cc1 [sery383]
α-synuclein
  inhibition of alpha-synuclein aggregation: highly active
α-synuclein; compound 10 μM, aggregation induced by DMSO and 10 μM FeCl3
  Intermediate II (formation of intermediate II oligomers in comparison to controls without compound): <5%
[3]; 1 mg compound per day orally in DMSO+peanut butter from 80 dpi
  reduction of PrPC accumulation compared to DMSO-treated controls: 30%
